Reference: patent US12358863B2, “Nitrogen-containing derivative of substituted phenol hydroxy acid ester, and preparation and use thereof” (priority 2019, dated 2025)

How the values were obtained:
Kunming mice [1] = format: in vivo, mouse; details: Table 3; dose 2×ED50, tail vein injection, male Kunming mice
Method: For each drug, 10 male Kunming mice weighing 20-35 g were included, and the dose of each drug was 2×ED50 in mice. After the compound of the present invention and fospropofol were respectively dissolved in saline, the resultant solutions were injected via the mouse tail vein. For propofol, a glucose dilution (5 mg/mL) of a commercially available emulsion of diprivan was selected and injected via the mouse tail vein; while, for another substituted phenol molecule (CAS:1637741-58-2), its 30% fat emulsion was prepared as a medicated emulsion. The concentration of the injectable solution of the compound according to the present invention was 10-15 mg/mL, and the concentration of the injectable solution of fospropofol was 55 mg/mL, while the concentration of the injectable solution of another substituted phenol molecule (CAS:1637741-58-2) was 1 mg/mL. After injection of tested drug, the occurrence time T1 of righting reflex after its disappearance, the duration T2 for the disappearance of righting reflex (i.e. anesthesia time) and the time T3 required for the animal to recover completely after waking up were recorded. Complete recovery refers to the recovery of autonomous activities of animals to the level before administration. In the experiment, animals were not given respiratory support such as oxygen inhalation or intubation.

[2] = Decomposition of prodrugs in mouse plasma in vitro (HPLC of released propofol or other substituted phenol); format: in vitro ADME; details: 37° C.
Method: The prodrug to be tested was prepared into a saline solution of 10 mg/mL. 10 μL of drug-containing solution was added to 990 μL of mouse plasma, vortexed for 30 s, and then incubated at 37° C. At 30 s, 1 min, 5 min, 10 min, 30 min, 60 min and 120 min, 50 μL of drug-containing plasma was collected, to which was immediately added 150 μL of acetonitrile to terminate the enzymatic reaction, and then centrifuged at 20000 rpm and 4° C. for 10 min. 50 μL of supernatant was taken out and injected into HPLC, to determine the concentration of propofol by internal standard method. The decomposition rate of the prodrug was calculated from the concentrations of propofol or other substituted phenols. Chromatographic conditions: Agilent Zorbax XdB C18 column (150 mm)×4.6 mm, 5 μm); column temperature 30° C.; the mobile phase, water:acetonitrile (40:60, v/v); fluorescence wavelength: excitation wavelength (Ex) at 276 nm, emission wavelength (EM) at 310 nm; flow rate: 1.2 mL/min; retention time: internal standard (thymol) 3.9 min, propofol 7.4 min. Linear range of propofol or other substituted phenols: 50-35000 ng/mL. Instruments: Waters 2695 high performance liquid chromatograph, Waters 2475 fluorescence detector.

Kunming mice [3] = experiment: Determination of therapeutic index (ED50 and LD50, up-and-down method); format: in vivo, mouse; details: half male and half female
Method: Determination of therapeutic index (TI) of prodrug molecules: by referring the method in literature (Dixon, W. Staircase bioassay: the up-and-down method. Neurosci. Biobehav. Rev. 1991, 15, 47-50), the half-effective dose (ED50) and half-lethal dose (LD50) of the molecule to be tested were determined in Kunming mice (weighing 25-30 g, half male and half female). The therapeutic index for each molecule was calculated according to the equation: TI=LD50/ED50.

| Structure (SMILES) | T1: the onset time after injection (Kunming mice [1]) | T2: the duration of disappearance of righting reflex (Kunming mice [1]) [min] | T3: the time required for righting reflex to recover to autonomous activity (Kunming mice [1]) [min] | Decomposition rates of prodrugs ([2]; 30 s) [%] | Decomposition rates of prodrugs ([2]; 1 min) [%] | Decomposition rates of prodrugs ([2]; 5 min) [%] | Decomposition rates of prodrugs ([2]; 10 min) | Decomposition rates of prodrugs ([2]; 30 min) [%] | Decomposition rates of prodrugs ([2]; 60 min) [%] | Decomposition rates of prodrugs ([2]; 120 min) [%] | TI (therapeutic index) (Kunming mice [3]) | Decomposition rates of prodrugs ([2]; 120 min, listed as fopropofol) [%] |
| --- | --- | --- | --- | --- | --- | --- | --- | --- | --- | --- | --- | --- |
| CC(C)c1cccc(C(C)C)c1OC(=O)COC(=O)CN1CCCC1.Cl [Compound 42] | Immediate | 6 to 12 | 1 to 2 | 91 | 100 | 100 | 100% | 100 | 100 | 100 | 3.7 | – |
| CC(C)C[C@@H](N)C(=O)OCC(=O)Oc1c(C(C)C)cccc1C(C)C.Cl [Compound 48] | Immediate | 6 to 14 | 1 to 2 | 92 | 100 | 100 | 100% | 100 | 100 | 100 | 4.1 | – |
| CC(C)c1cccc(C(C)C)c1OCOP(=O)(O)O [Fospropofol, fospropofol, reference compound] | 1.5 to 2 min | 28 to 45 | 5 to 8 | – | – | – | not decomposed significantly | 3 | 16 | 38 | 2.9 | 38 |
